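1) Cells in 96-well plates. 2) Compound, 48 h, 5 concentrations. 3) Linear interpolation between surrounding doses. 4) Unreached endpoint = highest concentration. At the GI50, growth is halved.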 Active and inactive are the calls of the source. No stated cut-off is given here; in the data, active = GI50 up to about 1.1 µM and inactive = higher.
Legend:
Experiment in all cases: NCI-60 cell line screen, 48 h
[1] = tested on: CCRF-CEM
[2] = tested on: EKVX
[3] = tested on: HCC 2998
[4] = tested on: HL-60
[5] = tested on: HOP-62
[6] = tested on: HOP-92
[7] = tested on: NCI-H226
[8] = tested on: NCI-H522
[9] = tested on: OVCAR-8
[10] = tested on: RXF 393
[11] = tested on: SF-295
[12] = tested on: SNB-19
[13] = tested on: TK-10
[14] = tested on: UACC-257
[15] = tested on: LOX IMVI

Measured: GI50

CCOc1ccccc1NC(=O)C(=O)Cc1nc2ccccc2s1
inactive: [1] > 100 µM | [2] > 100 µM | [3] > 100 µM | [4] > 100 µM | [5] > 100 µM | [6] > 100 µM | [7] > 100 µM | [8] > 100 µM | [9] > 100 µM | [10] > 100 µM | [11] > 100 µM | [12] > 100 µM | [13] > 100 µM | [14] > 100 µM

CCc1cccc(C(C)C)c1NC(=O)C(=O)C(C(=O)C(=O)OC)c1nc2ccccc2nc1O (stereo not drawn)
inactive: [1] > 100 µM | [2] 44.7 µM | [3] > 100 µM | [4] > 100 µM | [6] > 100 µM | [15] > 100 µM | [7] > 100 µM | [8] > 100 µM | [9] > 100 µM | [10] > 100 µM | [11] > 100 µM | [12] > 100 µM | [13] > 100 µM | [14] > 100 µM

CN1C(=O)C(=CN)C(=O)N(C)C1=O
inactive: [1] > 100 µM | [2] > 100 µM | [3] > 100 µM | [4] > 100 µM | [6] > 100 µM | [15] > 100 µM | [7] > 100 µM | [8] > 100 µM | [9] > 100 µM | [10] > 100 µM | [11] > 100 µM | [12] > 100 µM | [13] > 100 µM | [14] > 100 µM

CCCc1cc(OC(=O)c2c(O)cc(OC)cc2CCC)cc(O)c1C(=O)O
inactive: [1] 32.8 µM | [2] 26.2 µM | [3] 25.2 µM | [4] 23 µM | [5] 16.6 µM | [6] 13.5 µM | [15] 23.8 µM | [8] 16 µM | [9] 37.5 µM | [10] 16.6 µM | [12] 25.1 µM | [13] 48.5 µM | [14] 18.8 µM

Cc1nc2c3c(ccc2nc1O)C(=O)c1ccccc1C3=O
inactive: [2] 23.1 µM | [3] > 100 µM | [4] > 100 µM | [5] 40.4 µM | [6] 96.2 µM | [15] 41.6 µM | [7] 29.2 µM | [8] 7.18 µM | [9] 80 µM | [10] 13.1 µM | [11] > 100 µM | [12] > 100 µM | [13] > 100 µM | [14] > 100 µM

NC(CCc1nc(-c2ccccc2)cs1)C(=O)O (stereo not drawn)
inactive: [1] > 100 µM | [2] > 100 µM | [3] > 100 µM | [4] > 100 µM | [6] > 100 µM | [15] > 100 µM | [7] > 100 µM | [8] > 100 µM | [9] > 100 µM | [10] > 100 µM | [11] > 100 µM | [12] > 100 µM | [13] > 100 µM | [14] > 100 µM

Reference: ChEMBL document CHEMBL1201862, “PubChem BioAssay data set” (2004)
